Values after ≈ are worked out from the molar mass of the structure shown.
Experiments:
[1] = Antiproliferative activity against human HBL1 cells assessed as inhibition of cell growth incubated for 3 days by WST-1 assay; format: functional, cell-based; details: HBL1, 72 h
TMD8 = test: Antiproliferative activity against human TMD8 cells assessed as inhibition of cell growth incubated for 3 days by WST-1 assay; format: functional, cell-based; details: TMD8, 72 h
[2] = target: T1, Tyrosine-protein kinase SYK (Homo sapiens, UniProt P43405); test: Inhibition of human SYK using 5-Fluo-Ahx-GAPDYENLQELNKK-Amid as substrate in presence of ATP by microfluidic mobility shift assay
OCI-Ly10 = test: Antiproliferative activity against human OCI-Ly10 cells assessed as inhibition of cell growth incubated for 3 days by WST-1 assay; format: functional, cell-based; details: OCI-Ly10, 72 h
[3] = target: T1, Tyrosine-protein kinase SYK; test: Inhibition of SYK in human Ramos cells assessed as reduction in anti IgM-induced phosphorylation of BLNK by flow cytometry assay; format: cell-based
NCI-H460 = test: Antiproliferative activity against human NCI-H460 cells assessed as inhibition of cell growth measured after 48 hrs by MTT assay; format: functional, cell-based; details: NCI-H460, 48 h
PC-3 = test: Antiproliferative activity against human PC-3 cells assessed as inhibition of cell growth measured after 48 hrs by MTT assay; format: functional, cell-based; details: PC-3, 48 h
CAKI-1 = test: Antiproliferative activity against human CAKI-1 cells assessed as inhibition of cell growth; format: functional, cell-based
OVCAR-4 = test: Antiproliferative activity against human OVCAR-4 cells assessed as cell growth inhibition; format: functional, cell-based
MCF7 [4] = test: Antiproliferative activity against human MCF7 cells assessed as inhibition of cell growth measured after 48 hrs by MTT assay; format: functional, cell-based; details: MCF7, 48 h
MDA-MB-231 [5] = test: Antiproliferative activity against human MDA-MB-231 cells assessed as inhibition of cell growth by MTT assay; format: functional, cell-based
MCF7 [6] = test: Antiproliferative activity against human MCF7 cells assessed as inhibition of cell growth by [3H]thymidine incorporation assay; format: functional, cell-based
MDA-MB-231 [7] = test: Antiproliferative activity against human MDA-MB-231 cells assessed as inhibition of cell growth by [3H]thymidine incorporation assay; format: functional, cell-based
MCF7 [8] = test: Antiproliferative activity against human MCF7 cells assessed as inhibition of cell growth by MTT assay; format: functional, cell-based
[9] = target: T2, Interleukin-1 receptor-associated kinase 4 (Homo sapiens, UniProt Q9NWZ3); test: Inhibition of human GST-tagged IRAK4 incubated for 30 mins in presence of ATP by fluorescent polarization assay
T2 sequence (Q9NWZ3 whole entry): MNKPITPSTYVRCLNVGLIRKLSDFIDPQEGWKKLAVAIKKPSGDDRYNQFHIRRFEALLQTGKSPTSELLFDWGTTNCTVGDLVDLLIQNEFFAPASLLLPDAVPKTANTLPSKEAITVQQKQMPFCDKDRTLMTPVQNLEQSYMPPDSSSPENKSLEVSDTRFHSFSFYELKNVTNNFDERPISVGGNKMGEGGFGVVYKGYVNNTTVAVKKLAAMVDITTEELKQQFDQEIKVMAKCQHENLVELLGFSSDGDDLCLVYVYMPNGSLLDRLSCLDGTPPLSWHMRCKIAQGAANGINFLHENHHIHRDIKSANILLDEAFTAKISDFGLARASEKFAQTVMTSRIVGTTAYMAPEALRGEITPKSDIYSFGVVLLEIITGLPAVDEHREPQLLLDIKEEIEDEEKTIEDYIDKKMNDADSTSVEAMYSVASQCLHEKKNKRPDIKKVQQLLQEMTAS

HCT-116 = test: Antiproliferative activity against human HCT-116 cells assessed as inhibition of cell growth by MTT assay; format: functional, cell-based
HepG2 = test: Antiproliferative activity against human HepG2 cells assessed as cell growth inhibition by MTT assay; format: functional, cell-based
KB = test: Antiproliferative activity against human KB cells assessed as inhibition of cell growth under hypoxia condition; format: functional, cell-based
A549 [10] = test: Antiproliferative activity against human A549 cells assessed as inhibition of cell growth under hypoxia condition; format: functional, cell-based
SMMC-7721 = test: Antiproliferative activity against human SMMC-7721 cells assessed as inhibition of cell growth incubated for 72 hrs by MTT assay; format: functional, cell-based; details: SMMC-7721, 72 h
A549 [11] = test: Antiproliferative activity against human A549 cells assessed as inhibition of cell growth incubated for 72 hrs by MTT assay; format: functional, cell-based; details: A549, 72 h
K562 [12] = test: Induction of apoptosis in human K562 cells assessed as increase in apoptotic cells under hypoxia condition relative to control; format: functional
K562 [13] = test: Induction of apoptosis in human K562 cells assessed as increase in apoptotic cells under normoxia condition relative to control; format: functional
[14] = target: Fibroblast growth factor receptor (Homo sapiens, UniProt P22607+P11362+P22455+P21802); test: Inhibition of FGFR (unknown origin); format: protein assay

`NC(=O)c1nnc(N[C@@H]2CCCC[C@@H]2N)nc1Nc1cccc2cc[nH]c12` showed an IC50 [1] of 105 nM, an IC50 (TMD8) of 281 nM and an IC50 [2] of 0.8 nM. For the same compound, the IC50 (OCI-Ly10) was 25 nM and the IC50 [3] was 14 nM.
With `Cc1nn(C)c2nn3nnnc3nc12` the IC50 (NCI-H460) was 400 nM, the IC50 (PC-3) was 400 nM and the IC50 (CAKI-1) was 1120 nM. The IC50 (OVCAR-4) was 1120 nM and the IC50 (MCF7 [4]) was 400 nM.
`c1ccc(-c2cc(SN3CCOCC3)nnc2-c2ccccc2)cc1` gave an IC50 (MDA-MB-231 [5]) of 88000 nM, an IC50 (MCF7 [6]) of 87000 nM and an IC50 (MDA-MB-231 [7]) of 84000 nM. It also gave an IC50 (MCF7 [8]) of 91000 nM.
`NC(=O)c1nn(CCO)cc1NC(=O)c1ccc2cnc(NC3CCCCC3N)nn12` (stereo unspecified) gave an IC50 [9] of 3 nM.
In the case of `Cn1cc(NC(=O)c2ccc3cnc(NC4CCCCC4N)nn23)c(C(N)=O)n1` (stereo unspecified), the IC50 [9] is reported as 0.7 nM.
For `CCn1cc(NC(=O)c2ccc3cnc(NC4CCCCC4N)nn23)c(C(N)=O)n1` (stereo unspecified), the IC50 [9] was 1 nM.
Compound `O=C(O)CCc1nn2c(=O)c(/C=C/c3cccs3)nnc2s1` has an IC50 (HCT-116) of 8.34 µg/mL (≈ 24.9 µM), an IC50 (MCF7 [8]) of 11.7 µg/mL and an IC50 (HepG2) of 12.1 µg/mL (≈ 36.3 µM).
For `O=C(O)c1ccccc1-c1nn2c(=O)c(/C=C/c3cccs3)nnc2s1`, the IC50 (HCT-116) was 8.34 µg/mL (≈ 21.8 µM), the IC50 (MCF7 [8]) was 8.34 µg/mL and the IC50 (HepG2) was 8.34 µg/mL (≈ 21.8 µM).
With `COCNc1n[n+]([O-])c2ccccc2[n+]1[O-]` the IC50 (KB) was 2700 nM and the IC50 (A549 [10]) was 2700 nM.
Compound `CCOCNc1n[n+]([O-])c2ccccc2[n+]1[O-]` has an IC50 (KB) of 4090 nM, an IC50 (SMMC-7721) of 3120 nM and an IC50 (A549 [11]) of 3120 nM. The Activity (K562 [12]) was 32.11% and the Activity (K562 [13]) was 9.5%.
For `CCn1c(=O)c(-c2cc(OC)cc(OC)c2)cc2nnc(Nc3ccncc3)nc21`, the IC50 [14] was 350 nM.

Source: ChEMBL document CHEMBL5260813, “An overview on the recent developments of 1,2,4-triazine derivatives as anticancer compounds” (Eur J Med Chem, 2017)
